Experimental data from patent US11040112B2, “Lipids and lipid nanoparticle formulations for delivery of nucleic acids” (Acuitas Therapeutics, Inc., priority 2015, dated 2021).

Key:
[1] = system: luciferase expression in the liver; assay: Luciferase mRNA in vivo evaluation: luciferase expression in the liver after tail vein injection of FLuc mRNA lipid nanoparticles; parameters: species or system mice; conditions: liver 4 hours after administration; for Liver Luc @ 0.3 mg/kg (ng luc/g liver): 0.3 mg mRNA/kg; for Liver Luc @ 1.0 mg/kg (ng luc/g liver): 1.0 mg mRNA/kg
Experimental: Cationic lipid, DSPC, cholesterol and PEG-lipid were solubilized in ethanol at a molar ratio of 50:10:38.5:1.5 or 47.5:10:40.8:1.7. Lipid nanoparticles (LNP) were prepared at a total lipid to mRNA weight ratio of approximately 10:1 to 30:1. Briefly, the mRNA was diluted to 0.2 mg/mL in 10 to 50 mM citrate buffer, pH 4. Syringe pumps were used to mix the ethanolic lipid solution with the mRNA aqueous solution at a ratio of about 1:5 to 1:3 (vol/vol) with total flow rates above 15 ml/min. The ethanol was then removed and the external buffer replaced with PBS by dialysis. Finally, the lipid nanoparticles were filtered through a 0.2 μm pore sterile filter. Lipid nanoparticle particle size was approximately 55-95 nm diameter, and in some instances approximately 70-90 nm diameter as determined by quasi-elastic light scattering using a Malvern Zetasizer Nano ZS (Malvern, UK).
Studies were performed in 6-8 week old female C57BL/6 mice (Charles River) 8-10 week old CD-1 (Harlan) mice (Charles River) according to guidelines established by an institutional animal care committee (ACC) and the Canadian Council on Animal Care (CCAC). Varying doses of mRNA-lipid nanoparticle were systemically administered by tail vein injection and animals euthanized at a specific time point (e.g 4 hrs) post-administration. Liver and spleen were collected in pre-weighed tubes, weights determined, immediately snap frozen in liquid nitrogen and stored at −80° C. until processing for analysis.
For liver, approximately 50 mg was dissected for analyses in a 2 mL FastPrep tubes (MP Biomedicals, Solon Ohio). ¼″ ceramic sphere (MP Biomedicals) was added to each tube and 500 μL of Glo Lysis Buffer—GLB (Promega, Madison Wis.) equilibrated to room temperature was added to liver tissue. Liver tissues were homogenized with the FastPrep24 instrument (MP Biomedicals) at 2×6.0 m/s for 15 seconds. Homogenate was incubated at room temperature for 5 minutes prior to a 1:4 dilution in GLB and assessed using SteadyGlo Luciferase assay system (Promega). Specifically, 50 μL of diluted tissue homogenate was reacted with 50 μL of SteadyGlo substrate, shaken for 10 seconds followed by 5 minute incubation and then quantitated using a CentroXS^3 LB 960 luminometer (Berthold Technologies, Germany). The amount of protein assayed was determined by using the BCA protein assay kit (Pierce, Rockford Ill.). Relative luminescence units (RLU) were then normalized to total ug protein assayed. To convert RLU to ng luciferase a standard curve was generated with QuantiLum Recombinant Luciferase (Promega). Based in the data provided in FIG. 1, the four-hour time point was chosen for efficacy evaluation of the lipid formulations.
The FLuc mRNA (L-6107) from Trilink Biotechnologies will express a luciferase protein, originally isolated from the firefly, Photinus pyralis. FLuc is commonly used in mammalian cell culture to measure both gene expression and cell viability. It emits bioluminescence in the presence of the substrate, luciferin. This capped and polyadenylated mRNA is fully substituted with 5-methylcytidine and pseudouridine.
The cationic lipids shown in Table 2 have previously been tested with nucleic acids. For comparative purposes, these lipids were also used to formulate lipid nanoparticles containing the FLuc mRNA (L-6107) using an in line mixing method, as described in Example 1 and in PCT/US10/22614, which is hereby incorporated by reference in its entirety. […]

[2] = Determination of pKa of formulated lipids in lipid nanoparticles (TNS fluorescence assay); assay type: physicochemical; conditions: pKa of cationic lipid in LNP (cationic lipid/DSPC/cholesterol/PEG-lipid 50/10/38.5/1.5 mol %), pH of half-maximal intensity
Experimental: As described elsewhere, the pKa of formulated cationic lipids is correlated with the effectiveness of LNPs for delivery of nucleic acids (see Jayaraman et al, Angewandte Chemie, International Edition (2012), 51(34), 8529-8533; Semple et al, Nature Biotechnology 28, 172-176 (2010)). The preferred range of pKa is ˜5 to ˜7. […] Lipid nanoparticles comprising of cationic lipid/DSPC/cholesterol/PEG-lipid (50/10/38.5/1.5 mol %) in PBS at a concentration of 0.4 mM total lipid are prepared using the in-line process as described in Example 1. TNS was prepared as a 100 μM stock solution in distilled water. Vesicles were diluted to 24 μM lipid in 2 mL of buffered solutions containing, 10 mM HEPES, 10 mM MES, 10 mM ammonium acetate, 130 mM NaCl, where the pH ranged from 2.5 to 11. An aliquot of the TNS solution was added to give a final concentration of 1 μM and following vortex mixing fluorescence intensity was measured at room temperature in a SLM Aminco Series 2 Luminescence Spectrophotometer using excitation and emission wavelengths of 321 nm and 445 nm. A sigmoidal best fit analysis was applied to the fluorescence data and the pKa was measured as the pH giving rise to half-maximal fluorescence intensity (see FIG. 2).

[3] = Lipid Ratio A: 50% cationic lipid/10% DSPC/38.5% cholesterol/1.5% PEG lipid (PEG-DMA)
[4] = Lipid Ratio B: 47.5% cationic lipid/10% DSPC/40.8% cholesterol/1.7% PEG lipid

SMILES	Liver Luc @ 0.3 mg/kg (ng luc/g liver) [1, 3] [ng luc/g liver]	Liver Luc @ 1.0 mg/kg (ng luc/g liver) [1, 3] [ng luc/g liver]	pKa [2]	Liver Luc @ 0.3 mg/kg (ng luc/g liver) [1, 4] [ng luc/g liver]	Liver Luc @ 1.0 mg/kg (ng luc/g liver) [1, 4] [ng luc/g liver]
CCCCCCCCC(CCCCCC)C(=O)OCCCCCCN(CCO)CCCCCCOC(=O)C(CCCCCC)CCCCCCCC (stereo not drawn) [Compound 1]	467 ± 72	3780 ± 210	5.89	–	–
CCCCCCCCC(CCCCCC)C(=O)OCCCCCCN(CCCO)CCCCCCOC(=O)C(CCCCCC)CCCCCCCC (stereo not drawn) [Compound 2]	1195 ± 245	10059 ± 3833	6.05	–	–
CCCCCCCCC(CCCCCC)C(=O)OCCCCCCN(CCCCO)CCCCCCOC(=O)C(CCCCCC)CCCCCCCC (stereo not drawn) [Compound 3]	1275 ± 410	10643 ± 1858	6.09	–	–
CCCCCCCCC(CCCCCC)C(=O)OCCCCN(CCCCO)CCCCOC(=O)C(CCCCCC)CCCCCCCC (stereo not drawn) [Compound 4]	378 ± 82	1952 ± 940	5.6	–	–
CCCCCCCCC(CCCCCC)C(=O)OCCCCN(CCCO)CCCCOC(=O)C(CCCCCC)CCCCCCCC (stereo not drawn) [Compound 5]	183 ± 45	713 ± 298	5.59	–	–
CCCCCCCCC(CCCCCC)C(=O)OCCCCN(CCO)CCCCOC(=O)C(CCCCCC)CCCCCCCC (stereo not drawn) [Compound 6]	122 ± 49	520 ± 365	5.42	–	–
CCCCCCCCC(CCCCCC)C(=O)OCCCCCCN(CCCCCO)CCCCCCOC(=O)C(CCCCCC)CCCCCCCC (stereo not drawn) [Compound 7]	1158 ± 136	8406 ± 2335	6.11	–	–
CCCCCCCCC(CCCCCC)C(=O)OCCCCCCN(CCCCCCO)CCCCCCOC(=O)C(CCCCCC)CCCCCCCC (stereo not drawn) [Compound 8]	1467 ± 943	7230 ± 2290	5.84	–	–
CCCCCCCCC(CCCCCC)COC(=O)CCCCN(CCCCO)CCCCC(=O)OCC(CCCCCC)CCCCCCCC (stereo not drawn) [Compound 15]	247 ± 25	1633 ± 449	6.14	–	–
CCCCCCCCC(CCCCCC)COC(=O)CCCCCN(CCCO)CCCCCC(=O)OCC(CCCCCC)CCCCCCCC (stereo not drawn) [Compound 16]	344 ± 133	2633 ± 1140	6.31	–	–
CCCCCCCCC(CCCCCC)COC(=O)CCCCCN(CCCCO)CCCCCC(=O)OCC(CCCCCC)CCCCCCCC (stereo not drawn) [Compound 17]	275 ± 139	1554 ± 761	6.28	–	–
CCCCCCCCC(CCCCCC)COC(=O)CCCCCCCN(CCCCO)CCCCCCCC(=O)OCC(CCCCCC)CCCCCCCC (stereo not drawn) [Compound 20]	–	–	6.36	691 ± 150	4279 ± 2226
CCCCCCCCC(CCCCCC)C(=O)OCCCCCCCCCN(CCCCO)CCCCCCCCCOC(=O)C(CCCCCC)CCCCCCCC (stereo not drawn) [Compound 22]	660 ± 184	7533 ± 4499	6.1	–	–
CCCCCCCCC(CCCCCC)C(=O)OCCCCCCCCCCCCN(CCCCO)CCCCCCCCCCCCOC(=O)C(CCCCCC)CCCCCCCC (stereo not drawn) [Compound 23]	137 ± 51	487 ± 209	5.98	–	–
CCCCCCC(CCCC)C(=O)OCCCCCCCCCN(CCCCO)CCCCCCCCCOC(=O)C(CCCC)CCCCCC (stereo not drawn) [Compound 25]	1648 ± 534	13880 ± 5083	6.22	–	–
CCCCCCCCCCC(CCCCCCCC)C(=O)OCCCCCCN(CCCCO)CCCCCCOC(=O)C(CCCCCCCC)CCCCCCCCCC (stereo not drawn) [Compound 26]	1143 ± 782	1238 ± 1686	5.84	–	–
CCCCCCCCCCCCC(CCCCCCCCCC)C(=O)OCCCCCCN(CCCCO)CCCCCCOC(=O)C(CCCCCCCCCC)CCCCCCCCCCCC (stereo not drawn) [Compound 27]	110 ± 42	1088 ± 802	5.77	–	–
CCCCCCCCC(CCCCCC)C(=O)OCCCCCCN(CCCCCCOC(=O)C(CCCCCC)CCCCCCCC)CC(O)CO (stereo not drawn) [Compound 30]	49 ± 17	237 ± 92	6.09	–	–
CCCCCCCCCCC(CCCCCCCC)C(=O)OCCCCCCN(CCCO)CCCCCCOC(=O)C(CCCCCCCC)CCCCCCCCCC (stereo not drawn) [Compound 37]	1244 ± 907	2035 ± 498	5.89	–	–
CCCCCCCCC(CCCCCC)C(=O)OCCCCCCCCCCCCN(CCCO)CCCCCCCCCCCCOC(=O)C(CCCCCC)CCCCCCCC (stereo not drawn) [Compound 38]	60 ± 5	365 ± 181	6.1	–	–
CCCCCCCCCCCCC(CCCCCCCCCC)C(=O)OCCCCCCN(CCCO)CCCCCCOC(=O)C(CCCCCCCCCC)CCCCCCCCCCCC (stereo not drawn) [Compound 44]	–	–	5.79	23 ± 11	342 ± 229
CCCCCCC(CCCC)C(=O)OCCCCCCCCCN(CCCO)CCCCCCCCCOC(=O)C(CCCC)CCCCCC (stereo not drawn) [Compound 45]	–	–	6.25	1026 ± 199	8806 ± 2836
CCCCCCCCC(CCCCCC)COC(=O)CCCCCCCN(CCO)CCCCCCCC(=O)OCC(CCCCCC)CCCCCCCC (stereo not drawn) [Compound 46]	–	–	6.06	4 ± 2	5 ± 3
